Experimental data as given in the supplement of paper PMC9663587.

Tests used:
MCF10A (GM) = test: GRmax, 72 h; higher = less effect;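 also: breast cell lines in 384-well plates, nine doses across a 10^4 range, Dye Drop imaging of viable cells vs DMSO and time-zero plates, GR 0 means no net growth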
PDX1206 = test: GRmax, 72 h; higher = less effect;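 also: breast cell lines in 384-well plates, nine doses across a 10^4 range, Dye Drop imaging of viable cells vs DMSO and time-zero plates, GR 0 means no net growth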

Row | SMILES | GRmax, 72 h (MCF10A (GM)) [GR] | GRmax, 72 h (PDX1206) [GR]
1 | CN(C)C/C=C/C(=O)Nc1ccc(C(=O)N2CCC[C@@H](Nc3ncc(Cl)c(-c4c[nH]c5ccccc45)n3)C2)cc1 [THZ531] (max 1 µM) | -0.28 | -0.312
2 | CN(C)C/C=C/C(=O)Nc1ccc(C(=O)Nc2cccc(Nc3cc(-c4c[nH]c5ccccc45)ncn3)c2)cc1 [THZ-P1-2] (max 10 µM) | -0.164 | 0.857
3 | C=CC(=O)Nc1ccc(C(=O)Nc2[nH]nc3c2CN(C(=O)N[C@H](CN(C)C)c2ccccc2)C3(C)C)cc1 [YKL-5-124] (max 10 µM) | -0.141 | -0.513
4 | CN1CCN(C(=O)c2ccc3cc(CCNc4ncnc5ccc(C#N)cc45)ccc3c2)CC1 [senexin b] (max 10 µM) | 0.893 | 0.223
